# Measured values: patent US9163007B2, “5-substituted indazoles as kinase inhibitors” (AbbVie Inc., priority 2007, dated 2015)
# Target: Cdc7/Dbf4 (Homo sapiens (Human), UniProt O00311)
# Experiment: Cdc7 Inhibition Assay;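 further: reaction mixtures incubated 30 min on streptavidin-coated plates, then quantified by scintillation counting, with inhibition curves fitted by non-linear regression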
# Type: biochemical
# Details: 6 data point; read-out: Ki (μM) 6 data point
# Protocol: The reactions were incubated for 30 minutes on streptavidin-coated plates, washed, and quantified using a TopCount scintillation plate reader (Packard). IC50 values are determined via non-linear regression fitting of the data.
# Chain of Cdc7/Dbf4 (O00311 whole entry): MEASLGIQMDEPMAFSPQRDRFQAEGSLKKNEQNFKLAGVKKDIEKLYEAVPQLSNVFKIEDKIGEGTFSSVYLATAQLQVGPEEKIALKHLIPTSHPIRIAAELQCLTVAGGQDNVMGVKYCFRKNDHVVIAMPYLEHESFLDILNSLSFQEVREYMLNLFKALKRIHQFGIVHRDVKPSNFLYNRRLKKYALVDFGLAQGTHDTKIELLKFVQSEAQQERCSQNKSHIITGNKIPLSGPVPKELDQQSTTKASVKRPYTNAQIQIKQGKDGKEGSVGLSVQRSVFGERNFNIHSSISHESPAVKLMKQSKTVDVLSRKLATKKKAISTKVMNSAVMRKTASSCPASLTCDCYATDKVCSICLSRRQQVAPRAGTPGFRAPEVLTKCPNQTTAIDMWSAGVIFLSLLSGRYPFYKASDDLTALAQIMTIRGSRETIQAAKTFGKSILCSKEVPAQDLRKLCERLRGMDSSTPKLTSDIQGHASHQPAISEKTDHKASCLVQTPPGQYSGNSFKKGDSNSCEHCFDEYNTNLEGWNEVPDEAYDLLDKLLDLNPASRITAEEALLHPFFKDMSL
# Chain of Cdc7/Dbf4 (Q9UBU7 whole entry partner): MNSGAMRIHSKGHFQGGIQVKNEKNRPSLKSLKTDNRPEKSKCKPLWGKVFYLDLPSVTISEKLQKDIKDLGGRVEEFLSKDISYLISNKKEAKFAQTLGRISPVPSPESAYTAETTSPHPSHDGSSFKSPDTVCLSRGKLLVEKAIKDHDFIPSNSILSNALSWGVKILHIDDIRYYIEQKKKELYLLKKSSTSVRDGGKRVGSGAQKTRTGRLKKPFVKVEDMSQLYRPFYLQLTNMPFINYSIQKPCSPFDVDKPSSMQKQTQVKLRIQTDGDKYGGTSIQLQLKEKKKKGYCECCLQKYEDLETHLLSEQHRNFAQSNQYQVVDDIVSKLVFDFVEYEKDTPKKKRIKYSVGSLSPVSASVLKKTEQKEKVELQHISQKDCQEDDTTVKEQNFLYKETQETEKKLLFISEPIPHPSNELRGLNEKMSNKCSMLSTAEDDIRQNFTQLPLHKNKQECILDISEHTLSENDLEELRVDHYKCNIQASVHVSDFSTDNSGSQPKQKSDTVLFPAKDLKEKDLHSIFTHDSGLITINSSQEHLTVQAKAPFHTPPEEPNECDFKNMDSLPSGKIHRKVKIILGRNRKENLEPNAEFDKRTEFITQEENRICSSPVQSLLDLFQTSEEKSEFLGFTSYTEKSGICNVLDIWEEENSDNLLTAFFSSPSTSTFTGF
row,Ki [µM],SMILES
1,0.03,"Cc1ccccc1-c1c(-c2ccc3[nH]nc(N)c3c2)nnn1CC1CCOCC1 [Example 171, 5-[5-(2-methylphenyl)-1-(tetrahydro-2H-pyran-4-ylmethyl)-1H-1,2,3-triazol-4-yl]-1H-indazol-3-amine]"
2,0.229,"O=C(c1cccc(Cl)c1)c1c(-c2ccc3[nH]ncc3c2)nnn1CC1CCOCC1 [Example 146, (3-chlorophenyl)[4-(1H-indazol-5-yl)-1-(tetrahydro-2H-pyran-4-ylmethyl)-1H-1,2,3-triazol-5-yl]methanone]"
3,1.23,"NC1CCN(C(=O)c2c(-c3ccc4[nH]ncc4c3)nnn2Cc2ccccc2)CC1 [Example 197, 1-{[1-benzyl-4-(1H-indazol-5-yl)-1H-1,2,3-triazol-5-yl]carbonyl}piperidin-4-amine]"

# Same assay, conditions: 11 data point; read-out: Ki (μM) 11 data point
row,Ki [µM],SMILES
1,0.18,"O=C1CN(CC(=O)Nc2n[nH]c3ccc(-c4cn(Cc5ccccc5)nn4)cc23)CCN1 [Example 314, N-[5-(1-benzyl-1H-1,2,3-triazol-4-yl)-1H-indazol-3-yl]-2-(3-oxopiperazin-1-yl)acetamide]"
2,0.0563,"Fc1ccc(Cn2cc(-c3ccc4[nH]ncc4c3)nn2)cc1 [Example 10, 5-[1-(4-fluorobenzyl)-1H-1,2,3-triazol-4-yl]-1H-indazole]"
3,0.63,"c1ccc(Cn2cc(-c3ccc4[nH]nc(N5CCOCC5)c4c3)nn2)cc1 [Example 399, 5-(1-benzyl-1H-1,2,3-triazol-4-yl)-3-morpholin-4-yl-1H-indazole]"
4,0.038,"Fc1cccc(CNc2n[nH]c3ccc(-c4cn(Cc5ccccc5)nn4)cc23)c1 [Example 414, 5-(1-benzyl-1H-1,2,3-triazol-4-yl)-N-(3-fluorobenzyl)-1H-indazol-3-amine]"
5,0.12,"c1ccc(CNc2n[nH]c3ccc(-c4cn(Cc5ccccc5)nn4)cc23)cc1 [Example 411, N-benzyl-5-(1-benzyl-1H-1,2,3-triazol-4-yl)-1H-indazol-3-amine]"
6,0.5,"O=C(CNC1CCCCC1)Nc1n[nH]c2ccc(-c3cn(Cc4ccccc4)nn3)cc12 [Example 316, N^1-[5-(1-benzyl-1H-1,2,3-triazol-4-yl)-1H-indazol-3-yl]-N^2-cyclohexylglycinamide]"
7,0.22,"c1ccc(Cn2cc(-c3ccc4[nH]nc(NCCN5CCOCC5)c4c3)nn2)cc1 [Example 407, 5-(1-benzyl-1H-1,2,3-triazol-4-yl)-N-(2-morpholin-4-ylethyl)-1H-indazol-3-amine]"

# More lines, now with the values behind:
row,SMILES,Ki [µM]
1,"O=C(CNC1CCC1)Nc1n[nH]c2ccc(-c3cn(Cc4ccccc4)nn3)cc12 [Example 318, N^1-[5-(1-benzyl-1H-1,2,3-triazol-4-yl)-1H-indazol-3-yl]-N^2-cyclobutylglycinamide]",> 1.23
2,"Nc1n[nH]c2ccc(-c3nnn(Cc4ccc(C(F)(F)F)cc4)c3-c3ccc(F)cc3)cc12 [Example 150, 5-{5-(4-fluorophenyl)-1-[4-(trifluoromethyl)benzyl]-1H-1,2,3-triazol-4-yl}-1H-indazol-3-amine]",0.43
3,"CCCCNc1n[nH]c2ccc(-c3cn(Cc4ccccc4)nn3)cc12 [Example 410, 5-(1-benzyl-1H-1,2,3-triazol-4-yl)-N-butyl-1H-indazol-3-amine]",0.04
4,"CN(C)CCC(=O)Nc1n[nH]c2ccc(-c3cn(Cc4ccccc4)nn3)cc12 [Example 311, N^1-[5-(1-benzyl-1H-1,2,3-triazol-4-yl)-1H-indazol-3-yl]-N^3,N^3-dimethyl-beta-alaninamide]",> 1.23
5,"O=S(=O)(Nc1n[nH]c2ccc(-c3nnn(Cc4ccccc4)c3C3CC3)cc12)c1ccccc1Cl [Example 218, N-[5-(1-benzyl-5-cyclopropyl-1H-1,2,3-triazol-4-yl)-1H-indazol-3-yl]-2-chlorobenzenesulfonamide]",> 1.23
6,"Fc1ccc(CNc2n[nH]c3ccc(-c4cn(Cc5ccccc5)nn4)cc23)c(F)c1 [Example 416, 5-(1-benzyl-1H-1,2,3-triazol-4-yl)-N-(2,4-difluorobenzyl)-1H-indazol-3-amine]",0.037
